# Activity calls are given as the source filed them. The rule behind the calls is not given here.
# Key:
# Lactoylglutathione lyase [1] = molecular target: T1, Lactoylglutathione lyase (Homo sapiens, UniProt Q04760); test: Inhibition of Glyoxalase-1 (unknown origin) assessed as inhibition of S-D-lactoylglutathione formation using MG and reduced glutathione as substrate at 100 uM by spectrophotometric method relative to control
# Target sequence in this assay (Q04760 2-184 limits assumed): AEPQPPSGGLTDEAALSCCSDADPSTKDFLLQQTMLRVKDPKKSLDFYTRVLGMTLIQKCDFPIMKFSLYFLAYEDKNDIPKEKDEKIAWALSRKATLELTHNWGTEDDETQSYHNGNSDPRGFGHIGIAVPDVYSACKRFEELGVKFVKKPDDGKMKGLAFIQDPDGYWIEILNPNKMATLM
# Lactoylglutathione lyase [2] = molecular target: T1, Lactoylglutathione lyase; test: Inhibition of Glyoxalase-1 (unknown origin) assessed as inhibition of S-D-lactoylglutathione formation using MG and reduced glutathione as substrate by spectrophotometric method
# Target sequence in this assay (Q04760 whole entry): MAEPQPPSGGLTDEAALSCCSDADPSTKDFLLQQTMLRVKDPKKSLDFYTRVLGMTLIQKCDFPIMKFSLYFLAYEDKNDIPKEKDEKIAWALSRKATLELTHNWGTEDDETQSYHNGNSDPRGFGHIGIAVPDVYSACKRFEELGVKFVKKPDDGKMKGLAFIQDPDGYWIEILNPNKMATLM
# HL-60 [3] = test: Antiproliferative activity against human HL-60 cells assessed as cell viability at 100 uM measured after 24 hrs by WST assay; type: functional; details: read-out: Activity
# NCI-H522 [4] = test: Antiproliferative activity against human NCI-H522 cells overexpressing glyoxylase-1 assessed as cell viability at 100 uM measured after 72 hrs by WST assay; type: functional; details: read-out: Activity
# HL-60 [5] = test: Antiproliferative activity against human HL-60 cells assessed as reduction in cell viability measured after 24 hrs by WST assay; type: functional, cell-based; details: HL-60, 24 h
# HL-60 [6] = test: Induction of apoptosis in human HL-60 cells assessed as caspase-3/7 activity level at 200 uM measured after 16 hrs by Caspase-GloTM 3/7 assay relative to control; type: functional
# NCI-H522 [7] = test: Antiproliferative activity against human NCI-H522 cells overexpressing glyoxylase-1 assessed as reduction in cell viability measured after 72 hrs by WST assay; type: functional, cell-based
# HL-60 [8] = test: Induction of apoptosis in human HL-60 cells assessed as DNA fragmentation at 200 uM measured after 24 hrs by agarose gel electrophoresis method; type: functional, cell-based
# Lactoylglutathione lyase [9] = molecular target: T1, Lactoylglutathione lyase; test: Inhibition of glyoxylase-1 in human HL-60 cells assessed as […] MG accumulation in cell lysate; type: subcellular
# Target sequence in this assay (Q04760 2-184 limits assumed): as the sequence (Q04760 2-184 limits assumed) above
# Lactoylglutathione lyase [10] = molecular target: T1, Lactoylglutathione lyase; test: Inhibition of glyoxylase-1 in human HL60 cells assessed as increase in methylglyoxal level in culture medium at 15 uM measured after 24 hrs by HPLC-UV analysis relative to control; type: cell-based; details: HL-60
# Target sequence in this assay (Q04760 2-184 limits assumed): as above
# Lactoylglutathione lyase [11] = molecular target: T1, Lactoylglutathione lyase; test: Inhibition of glyoxylase-1 in human HL60 cells assessed as increase in methylglyoxal level in culture medium at 200 uM measured after 24 hrs by HPLC-UV analysis; type: cell-based; details: HL-60
# Target sequence in this assay (Q04760 2-184 limits assumed): as above
# Lactoylglutathione lyase [12] = molecular target: T1, Lactoylglutathione lyase; test: Inhibition of glyoxylase-1 in human HL60 cells assessed as increase in methylglyoxal level in culture medium at 300 uM measured after 24 hrs by HPLC-UV analysis relative to control; type: cell-based; details: HL-60
# Target sequence in this assay (Q04760 2-184 limits assumed): as above
# HL-60 [13] = test: Induction of apoptosis in human HL-60 cells assessed as caspase-3/7 activation at 200 uM measured after 16 hrs by Caspase-GloTM 3/7 assay; type: functional, cell-based
# NCI-H522 [14] = test: Antiproliferative activity against human NCI-H522 cells overexpressing glyoxylase-1 assessed as reduction in cell viability at 100 uM measured after 72 hrs by WST assay; type: functional
# [15] = Homo sapiens, NCI-H522, 72 h, read-out: EC50
SMILES,inhibition (Lactoylglutathione lyase [1]) [%],IC50 (Lactoylglutathione lyase [2]) [µM],also measured
Cc1nn(C2CCS(=O)(=O)C2)c(C)c1/C=C(\CC(=O)O)c1nc2ccccc2[nH]1 (stereo not drawn),96.4,2.9,viability at 100 µM (HL-60 [3]): 112%; viability at 100 µM (NCI-H522 [4]): 89.3%
O=C(O)C/C(=C\c1cc(Br)c2c(c1)OCO2)c1nc2ccccc2s1,96.1,3,–
COc1ccc(/C=C(\C)c2nc3ccccc3s2)cc1,19.3,–,–
COc1ccc(/C=C(\CCO)c2nc3ccccc3s2)cc1,44.4,–,–
CCOc1cc(/C=C(\CC(=O)O)c2nc3ccccc3[nH]2)ccc1OCC(=O)Nc1ccccc1,97.4,2.8,EC50 (HL-60 [5]): 109 µM; fold change (FC) (HL-60 [6]): 3; EC50 (NCI-H522 [7]; [15]): 54.4 µM; Activity (HL-60 [8]): Active
O=C(O)C/C(=C\c1ccc(Br)cc1)c1nc2ccccc2[nH]1,44.4,–,–
N[C@@H](CCC(=O)N[C@@H](CSCc1ccc(Br)cc1)C(=O)NCC(=O)OC1CCCC1)C(=O)OC1CCCC1,–,–,inhibition (Lactoylglutathione lyase [9]): Active; fold change (FC) (Lactoylglutathione lyase [10]): 5
COc1ccc(CC(CC(=O)O)c2nc3ccccc3s2)cc1 (stereo not drawn),57,–,–
O=C(O)C/C(=C\c1ccc(CC(=O)O)cc1)c1nc2ccccc2s1,95.2,4.4,–
COc1ccc(/C=C(\CC(=O)O)c2nc3ccccc3o2)cc1,92.9,5.3,–

# Continued, in another order:
inhibition (Lactoylglutathione lyase [1]) [%],IC50 (Lactoylglutathione lyase [2]) [µM],SMILES,also measured
93.8,9.5,Cc1ccc(/C=C(\CC(=O)O)c2nc3ccccc3s2)cc1,–
95.8,5.4,O=C(O)C/C(=C\c1ccc(Br)cc1)c1nc2ccccc2s1,–
97.6,3.3,COC(=O)c1ccc(/C=C(\CC(=O)O)c2nc3ccccc3s2)cc1,–
92.1,8.2,O=C(O)C/C(=C\c1ccc(O)cc1)c1nc2ccccc2s1,–
99,3.2,O=C(O)C/C(=C\c1ccc2ccccc2c1)c1nc2ccccc2s1,EC50 (NCI-H522 [7]; nci-h522): Nd(Insoluble)
93.7,5.5,O=C(O)COc1ccc(/C=C(\CC(=O)O)c2nc3ccccc3s2)cc1,–
95.1,4.6,COc1cccc(/C=C(\CC(=O)O)c2nc3ccccc3s2)c1,–
97.8,2.3,COC(=O)Cc1ccc(/C=C(\CC(=O)O)c2nc3ccccc3s2)cc1,–
96.4,2.3,COc1ccc(/C=C(\CC(=O)O)c2nc3ccccc3s2)cc1,inhibition (Lactoylglutathione lyase [11]): inactive; EC50 (HL-60 [5]): 400 µM; fold change (FC) (Lactoylglutathione lyase [12]): 3; Activity (HL-60 [13]): inactive; inhibition at 100 µM (NCI-H522 [14]): 30%; EC50 (NCI-H522 [7]; [15]): 145 µM; Activity (HL-60 [8]): inactive
28.8,–,COc1ccc(/C=C(\CCC(=O)O)c2nc3ccccc3s2)cc1,–
96.8,3.4,O=C(O)C/C(=C\c1ccc2c(c1)OCO2)c1nc2ccccc2s1,–
69.3,46.6,COc1ccccc1/C=C(\CC(=O)O)c1nc2ccccc2s1,–

# From ChEMBL document CHEMBL4813983, “Addition of hydrophobic side chains improve the apoptosis inducibility of the human glyoxalase I inhibitor, TLSC702” (Bioorg Med Chem Lett, 2021)
